Laboratory results published in PMC9086285, “Catalytic Features and Thermal Adaptation Mechanisms of a Deep Sea Bacterial Cutinase-Type Poly(Ethylene Terephthalate) Hydrolase” (Frontiers in Bioengineering and Biotechnology, 2022).

Columns and labels:
ICCG = target: T1, ICCG (unidentified prokaryotic organism, UniProt G9BY57, Y127G/D238C/F243I/S283C); test: inhibition of mp-PET hydrolysis, HPLC of products; format: biochemical; settings: 1 mM MHET, mp-PET substrate, 40°C, pH 8.5, 10 mM CaCl2, 72 h; product inhibition
T1 construct: quadruple variant of LCC; only D238C/S283C given, the other two changes (F243I, Y127G) known from Tournier et al. 2020; expression construct not described; PDB 6THT given as the ICCG structure used for modelling
T1 sequence (G9BY57 36-293 Y127G/D238C/F243I/S283C): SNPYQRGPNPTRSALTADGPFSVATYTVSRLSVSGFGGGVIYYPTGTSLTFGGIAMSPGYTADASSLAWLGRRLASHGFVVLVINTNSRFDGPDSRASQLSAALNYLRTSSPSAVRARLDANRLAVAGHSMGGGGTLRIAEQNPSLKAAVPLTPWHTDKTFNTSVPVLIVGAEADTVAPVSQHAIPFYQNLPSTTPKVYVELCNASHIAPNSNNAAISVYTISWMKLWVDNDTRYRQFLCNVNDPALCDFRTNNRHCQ

IsPETase = target: T2, IsPETase (Pseudideonella sakaiensis, UniProt A0A0K8P6T7); test: inhibition of mp-PET hydrolysis, HPLC of products; format: biochemical; settings: 1 mM MHET, mp-PET substrate, 40°C, pH 8.5, 10 mM CaCl2, 72 h; product inhibition
T2 construct: gene ISF6_4831; purified enzyme; expression construct not described
T2 sequence (A0A0K8P6T7 28-290): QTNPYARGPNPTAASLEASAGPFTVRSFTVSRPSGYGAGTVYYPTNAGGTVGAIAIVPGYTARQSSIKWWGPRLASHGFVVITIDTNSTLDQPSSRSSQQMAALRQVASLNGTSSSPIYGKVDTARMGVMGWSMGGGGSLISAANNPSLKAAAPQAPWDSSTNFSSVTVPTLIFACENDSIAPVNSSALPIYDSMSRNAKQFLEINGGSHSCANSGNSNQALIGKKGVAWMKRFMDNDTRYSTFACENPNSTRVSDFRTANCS

O=C(O)c1ccc(C(=O)OCCO)cc1 [MHET]
inhibition at 1 mM (ICCG): in the presence of MHET, significant inhibitory effects were detected toward IsPETase and ICCG
inhibition at 1 mM (IsPETase): in the presence of MHET, significant inhibitory effects were detected toward IsPETase and ICCG
